ChEMBL document CHEMBL1133917, “Synthesis and pharmacology of modified amidine isoxazoline glycoprotein IIb/IIIa receptor antagonists” (Bioorg Med Chem Lett, 2001)

Assays:
Format in all cases: functional
Homo sapiens = species on record: Homo sapiens; assay: Concentration required for maximal in vitro inhibition of aggregation of human platelet rich plasma (hPRP)
Canis familiaris [1] = assay: Percent inhibition of aggregation of platelet rich plasma at a dose of 0.025 mg/kg, iv, in canine model at 24 hr; details: Canis lupus familiaris
Canis familiaris [2] = assay: Percent inhibition of ex vivo platelet aggregation of rich plasma at a dose of 0.025 mg/kg, iv, in canine model at 5 hrs; details: Canis lupus familiaris
Canis familiaris [3] = assay: Percent inhibition of aggregation of platelet rich plasma at a dose of 0.025 mg/kg, iv, in canine model after 30 min; details: Canis lupus familiaris, 0.5 h
Canis familiaris [4] = assay: Percent inhibition of aggregation of platelet rich plasma at a dose of 0.025 mg/kg, iv, in canine model at 5 hrs; details: Canis lupus familiaris

SMILES | IC50 (Homo sapiens) [nM] | also measured
Cc1noc(C)c1S(=O)(=O)N[C@@H](CNC(=O)C[C@H]1CC(c2ccc(C(=N)NCc3cccc(F)c3)cc2)=NO1)C(=O)O | 55 | 
CCNC(=N)c1ccc(C2=NO[C@@H](CC(=O)NC[C@H](NS(=O)(=O)c3cccc(C)c3)C(=O)O)C2)cc1 | 51 | 
COc1ccccc1CNC(=N)c1ccc(C2=NO[C@@H](CC(=O)NC[C@H](NS(=O)(=O)c3c(C)noc3C)C(=O)O)C2)cc1 | 55 | 
COc1ccccc1CNC(=N)c1ccc(C2=NO[C@@H](CC(=O)NC[C@H](NS(=O)(=O)c3ccccc3C)C(=O)O)C2)cc1 | 40 | inhibition in vivo at 0.025 mg/kg (Canis familiaris [1]): 80%
CCNC(=N)c1ccc(C2=NO[C@@H](CC(=O)NC[C@H](NS(=O)(=O)c3ccccc3C)C(=O)O)C2)cc1 | 43 | inhibition in vivo at 0.025 mg/kg (Canis familiaris [2]): 40%
CCCCOC(=O)N[C@@H](CNC(=O)C[C@H]1CC(c2ccc(C(=N)NCC)cc2)=NO1)C(=O)O | 82 | 
CCNC(=N)c1ccc(C2=NOC(CC(=O)NCCC(=O)O)C2)cc1 (centres undefined) |  | inhibition in vivo at 0.025 mg/kg (Canis familiaris [3]): 70%; inhibition in vivo at 0.025 mg/kg (Canis familiaris [4]): 20%
Cc1ccccc1S(=O)(=O)N[C@@H](CNC(=O)C[C@H]1CC(c2ccc(C(=N)N)cc2)=NO1)C(=O)O | 54 | 
CCCCNC(=N)c1ccc(C2=NO[C@@H](CC(=O)NC[C@H](NS(=O)(=O)c3ccccc3C)C(=O)O)C2)cc1 | 16 | 
Cc1cccc(S(=O)(=O)N[C@@H](CNC(=O)C[C@H]2CC(c3ccc(C(=N)N)cc3)=NO2)C(=O)O)c1 | 50 | 
CCCCNC(=N)c1ccc(C2=NO[C@@H](CC(=O)NC[C@H](NC(=O)OCCCC)C(=O)O)C2)cc1 | 62 | 

More lines, main results first:

IC50 (Homo sapiens) [nM] | SMILES | also measured
60 | N=C(N)c1ccc(C2=NO[C@@H](CC(=O)NCCC(=O)O)C2)cc1 | 
87 | N/C(=N/Cc1ccccc1)c1ccc(C2=NO[C@@H](CC(=O)NCCC(=O)O)C2)cc1 | 
240 | N=C(N)c1ccc(C2=NOC(CC(=O)NCCC(=O)O)C2)cc1 (centres undefined) | 
200 | N/C(=N/Cc1ccccc1)c1ccc(C2=NOC(CC(=O)NCCC(=O)O)C2)cc1 (centres undefined) | 
1300 | CC(C)CCNC(=N)c1ccc(C2=NOC(CC(=O)NCCC(=O)O)C2)cc1 (centres undefined) | 
300 | CCCCCNC(=N)c1ccc(C2=NOC(CC(=O)NCCC(=O)O)C2)cc1 (centres undefined) | 
12 | N/C(=N/Cc1cccc(F)c1)c1ccc(C2=NOC(CC(=O)NCCC(=O)O)C2)cc1 (centres undefined) | 
20 | CCCCNC(=N)c1ccc(C2=NOC(CC(=O)NCCC(=O)O)C2)cc1 (centres undefined) | 
32 | COc1ccccc1CNC(=N)c1ccc(C2=NOC(CC(=O)NCCC(=O)O)C2)cc1 (centres undefined) | 
120 | CCCNC(=N)c1ccc(C2=NOC(CC(=O)NCCC(=O)O)C2)cc1 (centres undefined) | 
